Measured values from US20080221086A1, “Novel Inhibitors of Glutaminyl Cyclase” (PROBIODRUG AG, priority 2006, published 2008).

Target: hQC (Homo sapiens, UniProt Q16769)
Assay: Fluorometric assay of glutaminyl cyclase (QC) inhibition, H-Gln-βNA or H-Gln-AMC substrate
Type: biochemical
Settings: read-out: IC50
Experimental: All compounds were immediately tested regarding their activity as hQC inhibitors.
The purity of the compounds was determined by HPLC-MS. The IC50 value against hQC was measured using the fluorescent assay.
All measurements were performed with a BioAssay Reader HTS-7000Plus for microplates (Perkin Elmer) at 30° C. QC activity was evaluated fluorometrically using H-Gln-βNA. The samples consisted of 0.2 mM fluorogenic substrate, 0.25 U pyroglutamyl aminopeptidase (Unizyme, Hørsholm, Denmark) in 0.2 M Tris/HCl, pH 8.0 containing 20 mM EDTA and an appropriately diluted aliquot of QC in a final volume of 250 μl. Excitation/emission wavelengths were 320/410 nm. The assay reactions were initiated by addition of glutaminyl cyclase. QC activity was determined from a standard curve of β-naphthylamine under assay conditions. One unit is defined as the amount of QC catalyzing the formation of 1 μmol pGlu-βNA from H-Gln-βNA per minute under the described conditions.
In a second fluorometric assay, QC was activity was determined using H-Gln-AMC as substrate. Reactions were carried out at 30° C. utilizing the NOVOStar reader for microplates (BMG labtechnologies). The samples consisted of varying concentrations of the fluorogenic substrate, 0.1 U pyroglutamyl aminopeptidase (Qiagen) in 0.05 M Tris/HCl, pH 8.0 containing 5 mM EDTA and an appropriately diluted aliquot of QC in a final volume of 250 μl. Excitation/emission wavelengths were 380/460 nm. The assay reactions were initiated by addition of glutaminyl cyclase. QC activity was determined from a standard curve of 7-amino-4-methylcoumarin under assay conditions. The kinetic data were evaluated using GraFit software.
For inhibitor testing, the sample composition was the same as described above, except of the putative inhibitory compound added. For a rapid test of QC-inhibition, samples contained 4 mM of the respective inhibitor and a substrate concentration at 1 KM. For detailed investigations of the inhibition and determination of Ki-values, influence of the inhibitor on the auxiliary enzymes was investigated first. In every case, there was no influence on either enzyme detected, thus enabling the reliable determination of the QC inhibition. The inhibitory constant was evaluated by fitting the set of progress curves to the general equation for competitive inhibition using GraFit software.

Chain of hQC (Q16769 29-361): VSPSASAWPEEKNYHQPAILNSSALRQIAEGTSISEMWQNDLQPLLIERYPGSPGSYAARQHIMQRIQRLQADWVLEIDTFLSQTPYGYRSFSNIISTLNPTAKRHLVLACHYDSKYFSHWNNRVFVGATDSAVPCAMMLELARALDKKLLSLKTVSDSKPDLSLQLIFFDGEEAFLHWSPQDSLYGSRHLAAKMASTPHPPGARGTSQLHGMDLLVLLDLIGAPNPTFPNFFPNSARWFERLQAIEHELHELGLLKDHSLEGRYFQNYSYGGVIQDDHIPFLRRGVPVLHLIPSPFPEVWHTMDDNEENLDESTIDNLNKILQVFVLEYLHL

SMILES | IC50 [µM]
O=C(C/N=C1/NC(=O)N(CCCn2ccnc2)C1c1ccccc1)N1CCc2ccccc2C1 (stereo not shown) [Compound 66, 4-2-(3,4-Dihydro-1H-isoquinolin-2-yl)-2-oxo-ethylimino-1-(3-imidazol-1-yl-propyl)-5-phenyl-imidazolidin-2-one] | 4
O=C(C/N=C1\NC(=O)N(CCCn2ccnc2)C1c1cccc(F)c1F)N1CCc2ccccc2C1 (stereo not shown) [Compound 68, 5-(2,3-Difluoro-phenyl)-4-2-(3,4-dihydro-1H-isoquinolin-2-yl)-2-oxo-ethylimino-1-(3-imidazol-1-yl-propyl)-imidazolidin-2-one] | 4
O=C(C/N=C1/NC(=O)N(CCCn2ccnc2)C1c1ccc(Cl)c(F)c1)N1CCc2ccccc2C1 (stereo not shown) [Compound 70, 5-(4-Chloro-3-fluoro-phenyl)-4-2-(3,4-dihydro-1H-isoquinolin-2-yl)-2-oxo-ethylimino-1-(3-imidazol-1-yl-propyl)-imidazolidin-2-one] | 3.1
O=C(C/N=C1/NC(=O)N(CCCn2ccnc2)C1c1ccco1)N1CCc2ccccc2C1 (stereo not shown) [Compound 73, 4-2-(3,4-Dihydro-1H-isoquinolin-2-yl)-2-oxo-ethylimino-5-furan-2-yl-1-(3-imidazol-1-yl-propyl)-imidazolidin-2-one] | 6.7
CCC1/C(=N\CC(=O)N2CCc3ccccc3C2)NC(=O)N1CCCn1ccnc1 (stereo not shown) [Compound 75, 4-2-(3,4-Dihydro-1H-isoquinolin-2-yl)-2-oxo-ethylimino-5-ethyl-1-(3-imidazol-1-yl-propyl)-imidazolidin-2-one] | 7.6
O=C(C/N=C1\NC(=O)N(CCCn2ccnc2)C1c1ccccc1F)N1CCc2ccccc2C1 (stereo not shown) [Compound 76, 4-2-(3,4-Dihydro-1H-isoquinolin-2-yl)-2-oxo-ethylimino-5-(2-fluoro-phenyl)-1-(3-imidazol-1-yl-propyl)-imidazolidin-2-one] | 5.8
O=C(C/N=C1/NC(=O)N(CCCn2ccnc2)C1c1cccc(F)c1)N1CCc2ccccc2C1 (stereo not shown) [Compound 77, 4-2-(3,4-Dihydro-1H-isoquinolin-2-yl)-2-oxo-ethylimino-5-(3-fluoro-phenyl)-1-(3-imidazol-1-yl-propyl)-imidazolidin-2-one] | 4
O=C(C/N=C1/NC(=O)N(CCCn2ccnc2)C1c1ccc(F)cc1)N1CCc2ccccc2C1 (stereo not shown) [Compound 78, 4-2-(3,4-Dihydro-1H-isoquinolin-2-yl)-2-oxo-ethylimino-5-(4-fluoro-phenyl)-1-(3-imidazol-1-yl-propyl)-imidazolidin-2-one] | 3.1
O=C(C/N=C1/NC(=O)N(CCCn2ccnc2)C1c1ccc(O)cc1)N1CCc2ccccc2C1 (stereo not shown) [Compound 79, 4-2-(3,4-Dihydro-1H-isoquinolin-2-yl)-2-oxo-ethylimino-5-(4-hydroxy-phenyl)-1-(3-imidazol-1-yl-propyl)-imidazolidin-2-one] | 3.1
CC1/C(=N/C(c2ccccc2)c2ccccc2)NC(=O)N1CCCn1ccnc1 (stereo not shown) [Compound 80, 4-Benzhydrylimino-1-(3-imidazol-1-yl-propyl)-5-methyl-imidazolidin-2-one] | 9.4
O=C1N/C(=N\C(c2ccccc2)c2ccccc2)C(c2cccc(F)c2F)N1CCCn1ccnc1 (stereo not shown) [Compound 83, 4-Benzhydrylimino-5-(2,3-difluoro-phenyl)-1-(3-imidazol-1-yl-propyl)-imidazolidin-2-one] | 7.6
O=C1N/C(=N\C(c2ccccc2)c2ccccc2)C(c2cc(F)cc(F)c2)N1CCCn1ccnc1 (stereo not shown) [Compound 84, 4-Benzhydrylimino-5-(3,5-difluoro-phenyl)-1-(3-imidazol-1-yl-propyl)-imidazolidin-2-one] | 3.1
O=C1N/C(=N\C(c2ccccc2)c2ccccc2)C(CO)N1CCCn1ccnc1 (stereo not shown) [Compound 85, 4-Benzhydrylimino-5-hydroxymethyl-1-(3-imidazol-1-yl-propyl)-imidazolidin-2-one] | 6.7
CCCCC1/C(=N/C(c2ccccc2)c2ccccc2)NC(=O)N1CCCn1ccnc1 (stereo not shown) [Compound 86, 4-Benzhydrylimino-5-butyl-1-(3-imidazol-1-yl-propyl)-imidazolidin-2-one] | 5.8
O=C1N/C(=N/Cc2cccnc2)C(c2cccc(F)c2)N1CCCn1ccnc1 (stereo not shown) [Compound 91, 5-(3-Fluoro-phenyl)-1-(3-imidazol-1-yl-propyl)-4-pyridin-3-ylmethylimino-imidazolidin-2-one] | 8.5
O=C1N/C(=N/Cc2ccccc2)C(c2ccc[nH]2)N1CCCn1ccnc1 (stereo not shown) [Compound 93, 4-Benzylimino-1-(3-imidazol-1-yl-propyl)-5-(1H-pyrrol-2-yl)-imidazolidin-2-one] | 9.4
O=C1N/C(=N/Cc2ccccc2)C(c2cc(F)cc(F)c2)N1CCCn1ccnc1 (stereo not shown) [Compound 95, 4-Benzylimino-5-(3,5-difluoro-phenyl)-1-(3-imidazol-1-yl-propyl)-imidazolidin-2-one] | 5.8

The remaining compounds from weak to strong by IC50, led by results:

IC50 [µM] | SMILES
9.4 | O=C1N/C(=N\C(c2ccccc2)c2ccccc2)C(C2CCC=CO2)N1CCCn1ccnc1 (stereo not shown) [Compound 82, 4-Benzhydrylimino-5-(3,4-dihydro-2H-pyran-2-yl)-1-(3-imidazol-1-yl-propyl)-imidazolidin-2-one]
9.4 | O=C1N/C(=N\C(c2ccccc2)c2ccccc2)C(c2ccc(O)cc2)N1CCCn1ccnc1 (stereo not shown) [Compound 89, 4-Benzhydrylimino-5-(4-hydroxy-phenyl)-1-(3-imidazol-1-yl-propyl)-imidazolidin-2-one]
8.5 | O=C(C/N=C1/NC(=O)N(CCCn2ccnc2)C1CO)N1CCc2ccccc2C1 (stereo not shown) [Compound 72, 4-2-(3,4-Dihydro-1H-isoquinolin-2-yl)-2-oxo-ethylimino-5-hydroxymethyl-1-(3-imidazol-1-yl-propyl)-imidazolidin-2-one]
8.5 | O=C1N/C(=N/Cc2cccnc2)C(c2cc(F)cc(F)c2)N1CCCn1ccnc1 (stereo not shown) [Compound 90, 5-(3,5-Difluoro-phenyl)-1-(3-imidazol-1-yl-propyl)-4-pyridin-3-ylmethylimino-imidazolidin-2-one]
8.5 | O=C1N/C(=N/Cc2ccccc2)C(c2ccccc2)N1CCCn1ccnc1 (stereo not shown) [Compound 92, 4-Benzylimino-1-(3-imidazol-1-yl-propyl)-5-phenyl-imidazolidin-2-one]
7.6 | CCCCC1/C(=N\CC(=O)N2CCc3ccccc3C2)NC(=O)N1CCCn1ccnc1 (stereo not shown) [Compound 74, 5-Butyl-4-2-(3,4-dihydro-1H-isoquinolin-2-yl)-2-oxo-ethylimino-1-(3-imidazol-1-yl-propyl)-imidazolidin-2-one]
6.7 | O=C1N/C(=N/Cc2ccccc2)C(c2ccc(Cl)c(F)c2)N1CCCn1ccnc1 (stereo not shown) [Compound 96, 4-Benzylimino-5-(4-chloro-3-fluoro-phenyl)-1-(3-imidazol-1-yl-propyl)-imidazolidin-2-one]
5.8 | O=C1N/C(=N\C(c2ccccc2)c2ccccc2)C(c2ccccc2)N1CCCn1ccnc1 (stereo not shown) [Compound 81, 4-Benzhydrylimino-1-(3-imidazol-1-yl-propyl)-5-phenyl-imidazolidin-2-one]
5.8 | O=C1N/C(=N\C(c2ccccc2)c2ccccc2)C(c2cccc(F)c2)N1CCCn1ccnc1 (stereo not shown) [Compound 88, 4-Benzhydrylimino-5-(3-fluoro-phenyl)-1-(3-imidazol-1-yl-propyl)-imidazolidin-2-one]
5.8 | O=C1N/C(=N\Cc2ccccc2)C(c2cccc(F)c2F)N1CCCn1ccnc1 (stereo not shown) [Compound 94, 4-Benzylimino-5-(2,3-difluoro-phenyl)-1-(3-imidazol-1-yl-propyl)-imidazolidin-2-one]
4.9 | O=C(C/N=C1/NC(=O)N(CCCn2ccnc2)C1C1CCC=CO1)N1CCc2ccccc2C1 (stereo not shown) [Compound 67, 4-2-(3,4-Dihydro-1H-isoquinolin-2-yl)-2-oxo-ethylimino-5-(3,4-dihydro-2H-pyran-2-yl)-1-(3-imidazol-1-yl-propyl)-imidazolidin-2-one]
4.9 | O=C(C/N=C1/NC(=O)N(CCCn2ccnc2)C1c1cc(F)cc(F)c1)N1CCc2ccccc2C1 (stereo not shown) [Compound 69, 5-(3,5-Difluoro-phenyl)-4-2-(3,4-dihydro-1H-isoquinolin-2-yl)-2-oxo-ethylimino-1-(3-imidazol-1-yl-propyl)-imidazolidin-2-one]
4 | O=C(C/N=C1\NC(=O)N(CCCn2ccnc2)C1c1ccccc1Cl)N1CCc2ccccc2C1 (stereo not shown) [Compound 71, 5-(2-Chloro-phenyl)-4-2-(3,4-dihydro-1H-isoquinolin-2-yl)-2-oxo-ethylimino-1-(3-imidazol-1-yl-propyl)-imidazolidin-2-one]
4 | O=C1N/C(=N\C(c2ccccc2)c2ccccc2)C(c2ccccc2F)N1CCCn1ccnc1 (stereo not shown) [Compound 87, 4-Benzhydrylimino-5-(2-fluoro-phenyl)-1-(3-imidazol-1-yl-propyl)-imidazolidin-2-one]
